Measured values published in patent publication US9828351B2, “Enzyme interacting agents” (MONASH UNIVERSITY, priority 2014, dated 2017).

Experiments:
[1] = molecular target: T1, recombinant his tagged human SphK1 (Homo sapiens, UniProt Q9NYA1); assay: SphK1 activity assay (32P-labelled S1P production); assay type: biochemical; settings: 10 μM compound; % of activity compared to control (DMSO vehicle only)
T1 construct: His tag; made in house; host or cells: insect cells (baculovirus system)
Experimental: The SphK assays employed, measure SphK activity through the production of ^32P-labelled S1P following the addition of exogenous Sph and [γ^32P] ATP.
Activities of SphK1 and SphK2 were determined using identical assay conditions with the exception that SphK1 assays used 3 ng/assay recombinant his tagged human SphK1 (made in the lab in a baculovirus system using insect cells), while SphK2 assays used 30 ng/assay recombinant human SphK2 (purchased by Johnson and Johnson).
Compounds were dissolved in DMSO at 10 mM, the mixture was vortexed (and sonicated if necessary). Stock solutions were kept at 4° C. until used.
Aliquots were made containing 100 μM drug compound. These aliquots were then diluted in assay buffer: 100 mM tris/HCl pH 7.4, 100 mM NaCl, 1 mM sodium orthovanadate, 10 mM NaF to make up a 10 μM solution.
Recombinant enzyme was diluted in assay buffer (above) to make up a final concentration of 0.03 ng/μL (SphK1) or 0.33 ng/μL (SphK2).
40 μL recombinant enzyme was added to an Eppendorf® Safe-Lock® microcentrifuge tube. This was followed by the addition of drug compound from prepared aliquots, before adding ATP, [γ^32P]ATP and Sph. Note: ATP stock is made up in 1M Tris pH 7.4 and 200 mM MgCl2. This allows ATP to complex with Mg and be available as a substrate.
The rest of the reaction mixture was then added to the enzyme sample (Table 1). All reactions were performed as triplicates.
Reaction mixture was prepared with sufficient volume to assay all of the required samples. To do this, each of the volumes shown was multiplied by n+1, where n is the number of samples to be assayed. Assay buffer used is made up of 100 mM tris/HCl pH 7.4, 100 mM NaCl, 1 mM sodium orthovanadate and 10 mM NaF.
The mixture was then incubated at 37° C. for 20 min (SphK1)/45 min (SphK2).
To the 100 μL assay mixture, add 270 μl of chloroform/methanol/conc. HCl (100:200:1).
20 μL of 5 M KCl was then added to the assay mixture.
70 μL of chloroform was added to create phase separation. The solution was vortexed to mix well.
The solution was then centrifuged for 5 min at 13,000×g to fully separate the phases.
The upper aqueous/methanol phase was separated by aspiration.
50 μL of the remaining lower chloroform phase […] was applied onto the TLC plate by repeatedly spotting a few microliters of liquid (<5 mm diameter circle) between each sample spot with the pipette tip. The liquid was then allowed to absorb into the plate before drying with a stream of air.
The TLC plate was developed in a glass TLC developing tank with 1-butanol/ethanol/glacial acetic acid/H2O (8:2:1:2) until the mobile phase is within 1 cm of the top of the TLC plate.
The TLC plate was then exposed to a storage phosphor screen overnight. Storage phosphor screens work by capturing images produced by ionising radiation (e.g. ^32P). The phosphorimager stimulates the screen which uses lasers to convert the latent signal to light. Light is proportional to the amount of radioactivity in the sample. The image is then quantified using standard quantification software (ImageQuant™). Whatman paper with the assay mixture dilutions, was included to assist quantification of the phosphor signal.
Once the storage phosphor screen was read using the phosphorimager, S1P spots, which have an Rf of 0.7 with the mobile phase employed, were quantified.
The S1P spot intensity can be converted to the amount of phosphate transferred/min/mg protein.

[2] = molecular target: T2, Dihydroceramide Desaturase-1 (Des1) (Homo sapiens, UniProt O15121); assay: Dihydroceramide desaturase-1 (Des1) activity by HPLC in intact Jurkat cells labeled with DhCer-C6-NBD; assay type: cell-based; settings: intact Jurkat cells; read-out: Des 1 IC50
T2 construct: These modifications included the use of parental Jurkat cells; endogenous in cells; host or cells: parental Jurkat cells
T2 sequence (O15121 1-323): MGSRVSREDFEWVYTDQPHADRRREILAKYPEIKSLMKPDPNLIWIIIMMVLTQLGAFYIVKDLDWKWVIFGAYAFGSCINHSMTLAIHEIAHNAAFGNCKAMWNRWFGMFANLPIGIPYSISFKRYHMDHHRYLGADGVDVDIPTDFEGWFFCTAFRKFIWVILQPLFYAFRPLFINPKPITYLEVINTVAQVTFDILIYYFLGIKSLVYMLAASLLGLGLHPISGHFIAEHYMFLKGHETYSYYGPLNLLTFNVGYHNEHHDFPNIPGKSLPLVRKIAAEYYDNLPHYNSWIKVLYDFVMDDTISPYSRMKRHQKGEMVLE
Experimental: Measurement of Dihydroceramide Desaturase-1 (Des1) Activity:
These modifications included the use of parental Jurkat cells, 0.5% serum in the culture media, and cell harvesting via centrifugation at 500×g to maximise ceramide extraction. Extracted samples (50 ul) were analysed on a Waters HPLC coupled to a fluorescence detector using a 30 cm C18 reverse-phase column eluted with 1 ml/min 20% H2O and 80% acetonitrile, both with a 0.1% of trifluoroacetic acid.

MCF7 breast cancer cells = assay: Anticancer activity in MCF7 cell lines, MTS assay; assay type: cell-based; settings: Homo sapiens, concentration required to inhibit cell proliferation by 50%, 72 hrs, read-out: MCF-7 IC50
Experimental: Measurement of Anticancer Activity in MCF7 Cell Lines
MCF7 breast cancer cells were treated with the test compounds and incubated at 37° C., 5% CO2 in air for 72 hrs. The MTS assay was conducted with addition of prepared MTS solution followed by 2 hr incubation, an OD reading and the raw data recorded. The data was managed in tabular form, values adjusted for vehicle control, and the adjusted values graphed as a sigmoidal curve and the EC50 value calculated.

T1 sequence (Q9NYA1 whole entry): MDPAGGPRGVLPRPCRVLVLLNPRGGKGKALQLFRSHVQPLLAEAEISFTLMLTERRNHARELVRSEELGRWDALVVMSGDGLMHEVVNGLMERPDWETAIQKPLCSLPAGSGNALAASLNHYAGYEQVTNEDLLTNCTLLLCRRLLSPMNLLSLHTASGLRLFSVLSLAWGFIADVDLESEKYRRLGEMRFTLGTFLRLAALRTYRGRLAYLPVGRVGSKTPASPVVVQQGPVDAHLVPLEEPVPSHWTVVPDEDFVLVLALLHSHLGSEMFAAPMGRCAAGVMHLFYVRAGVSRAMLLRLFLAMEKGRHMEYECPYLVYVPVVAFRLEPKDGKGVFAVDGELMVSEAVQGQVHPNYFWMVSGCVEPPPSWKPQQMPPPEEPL

## Oc1ccc(Nc2nc(-c3ccc(Cl)cc3)cs2)cc1 [SKI-II, reference compound]
[1]
  activity at 10 µM: 50 to 80%
[2]
  IC50: 0.1 to 1 µM
MCF7 breast cancer cells
  IC50: 10 to 100 µM
